Test [1] concerns HEL 92.1.7. In words: MTT cell viability assay, HEL cells. It counts as cell-based. The note with it: Homo sapiens, 48 h drug exposure. On the procedure:
HEL 92.1.7 [American Type Culture Collection (ATCC) reference number TIB-180]. This a human cancer cell line derived from the bone marrow of a person with erythroleukemia, which is a form of AML.
(§1) Cell viability was assayed by measuring the mitochondrial reduction of the tetrazolium salt 3-(4,5-methyltiazol-2yl)-2,5diphenyl-tetrazolium bromide] (MTT) (Applichen; A2231,0010) [Mosmann T. J Immunol Methods. 1983 16;65(1-2):55-63 (ref. 36); Chuan Y-C et al 2010. Oncogene. 29 (10), 1531-1542 (ref. 37)]. Cells were seeded in 96-well plates in medium (either RPMI, DMEM or McCoys depending on the recommendations from the ATCC) supplemented with 10% FBS (Lonza Cat. N°: 14-502F), 2mM L-Glut (Lonza Cat. N°: BE17-605E) and 100U/ml PEST (Lonza Cat. N°: DE17-605E) at a cell density of 1000-5000 cells/well (96 well plate). Cells were seeded at a density according to their exponential growth phase (normally 1000 to 5000/well). The cells were cultured at 37 °C in the dark in air containing 5% CO2. After 24h either vehicle (0.05% DMSO) or drug were added to culture medium at the indicated concentrations (10 to 0,01microM). After another 48 h, MTT (0.3 mg/ml) was added to cells, followed by incubation for 2-4h at 37 °C in the dark. The medium was then removed and the precipitated formazan was solubilized by the addition of DMSO (200 µL).
(§2) The optical density was measured at 595 nm with the iMark Microplate Reader (BioRad, USA). Data was expressed as percent growth above the level in controls and the results in figures were plotted as means ± SEM of each test point from 3 replicates.
(§3) Statistical analysis. The concentration of drug that provokes 50% reduction of cell viability (IC50) was determined by using non-linear regression analysis and data were fitted to a log concentration vs normalized response curve in GraphPad software v5 (San Diego, CA).

The subject of test [2] is K562. In words: MTT cell viability assay, K562 cells. It counts as cell-based. The note with it: Homo sapiens, 48 h drug exposure. On the procedure: K562 [American Type Culture Collection (ATCC) reference number CCL-243]. This a human cancer cell line derived from the bone marrow of a person with CML.
as §1, §2, §3

Test [3] deals with MDA-MB-231. In words: MTT cell viability assay, MDA-MB-231 cells. It counts as cell-based, human. The note with it: Homo sapiens, 48 h drug exposure. On the procedure:
MDA-MB-231 [American Type Culture Collection (ATCC) reference number HTB-26]. This a human breast cancer cell line derived from a metastatic site from a person.
as §1, §2, §3

In test [4] the test system is DU-145. In words: MTT cell viability assay, DU-145 cells. The format is cell-based. The note with it: Homo sapiens, 48 h drug exposure. On the procedure:
DU-145 [American Type Culture Collection (ATCC) reference number HTB-81]. This a human prostate cancer cell line derived from a metastatic site (brain) of a person.
as §1, §2, §3

For test [5], the system named is MCF-7. In words: MTT cell viability assay, MCF-7 cells. The format is cell-based. The note with it: Homo sapiens, MCF7, 48 h drug exposure. On the procedure: as §1, §2, §3
The test system of test [6] is PANC-1. In words: MTT cell viability assay, PANC-1 cells. The format is cell-based. The note with it: Homo sapiens, 48 h drug exposure. On the procedure: PANC-1 [American Type Culture Collection (ATCC) reference number CRL-1469]. This a human cancer cell line derived from the pancreas of a person.
as §1, §2, §3

Here are results for 28 molecules from patent publication EP4177246A1, “FUSED OXAZEPINES AS INHIBITORS OF PEROXIREDOXINS” (Centro Atlántico del Medicamento, SA, priority 2021, dated 2023).

Turning to `O=C1C2=C(C(=O)c3ccccc31)N(c1ccccc1)Cc1ccccc1O2` [Compound 1, 12-phenyl-12,13-dihydrobenzo[f]naphtho[2,3-b][1,4]oxazepine-6,11-dione], the IC50 amounted to 0.45 µM in test [1], 0.98 µM in test [2] and 1.59 µM in test [3].
`NC(=O)c1ccc(N2Cc3ccccc3OC3=C2C(=O)c2ccccc2C3=O)cc1` [Compound 17, 4-(6,11-dioxo-6,11-dihydrobenzo[f]naphtho[2,3-b][1,4]oxazepin-12(13H)-yl)benzamide]: the results for the IC50 in test [4], in test [2] and in test [5] were 5.77 µM, 0.65 µM and 5.91 µM, respectively.
With `NS(=O)(=O)c1ccc(N2Cc3ccccc3OC3=C2C(=O)c2ccccc2C3=O)cc1` [Compound 19], the IC50 in test [1] is 1 µM; in test [4], 8.36 µM; in test [2], 1.39 µM; in test [5], 7.9 µM.
For the molecule `N#Cc1cccc(N2Cc3cc(Cl)ccc3OC3=C2C(=O)c2c(O)ccc(O)c2C3=O)c1` [Compound 43], the IC50 in test [2] came out at 0.76 µM; in test [5], 1.3 µM; in test [3] it was 0.81 µM; in test [6], 0.74 µM.
As to `NC(=O)c1cccc(N2Cc3cc(Cl)ccc3OC3=C2C(=O)c2c(O)ccc(O)c2C3=O)c1` [Compound 44], the IC50 was 0.06 µM in test [2], 0.97 µM in test [5], 0.73 µM in test [3] and 0.32 µM in test [6].
`O=C1C2=C(C(=O)c3c(O)ccc(O)c31)N(c1ccccc1)Cc1ccccc1O2` [Compound 45, 7,10-dihydroxy-12-phenyl-12,13-dihydrobenzo[f]naphtho[2,3-b][1,4]oxazepine-6,11-dione]: the IC50 in test [1] was found to be 0.09 µM; in test [4], 0.57 µM; in test [2] it was 0.09 µM; in test [3], 0.13 µM.
Take `CN(CCO)c1ccc(N2Cc3ccccc3OC3=C2C(=O)c2ccccc2C3=O)cn1` [Compound 49]: the IC50 turned out to be 1.22 µM in test [1], 2.63 µM in test [3] and 3.43 µM in test [6].
For `NC(=O)c1ccc(N2Cc3cc(F)ccc3OC3=C2C(=O)c2c(O)ccc(O)c2C3=O)cc1` [Compound 55], the IC50 in test [2] was 0.33 µM; in test [5], 3.45 µM; in test [3], 3.35 µM; in test [6] it was 0.89 µM.
For the molecule `COc1cccc2c1OC1=C(C(=O)c3c(O)ccc(O)c3C1=O)N(c1ccc(C(N)=O)cc1)C2` [Compound 56], the IC50 worked out at 7.22 µM in test [4], 0.19 µM in test [2], 3.04 µM in test [5] and 0.4 µM in test [3].
Regarding `CC(=O)Oc1ccc(OC(C)=O)c2c1C(=O)C1=C(C2=O)N(c2cccnc2)Cc2ccccc2O1` [Compound 60, 6,11-dioxo-12-(pyridin-3-yl)-6,11,12,13-tetrahydrobenzo[f]naphtho[2,3-b][1,4] oxazepine-7,10-diyl diacetate], the IC50 in test [1] is 0.08 µM; in test [3], 0.41 µM.
As to `CN(CCO)c1ccc(N2Cc3ccccc3OC3=C2C(=O)c2c(O)ccc(O)c2C3=O)cn1` [Compound 61], the concentration for half-maximal inhibition (IC50) was 0.1 µM in test [1], 0.92 µM in test [4], 0.16 µM in test [2] and 0.41 µM in test [3].
For `NCCN(CCO)c1ccc(N2Cc3ccccc3OC3=C2C(=O)c2c(O)ccc(O)c2C3=O)cn1` [Compound 63], the IC50 amounted to 0.09 µM in test [1] and 0.25 µM in test [3].
As to `CCOC(=O)c1ccc2c(c1)CN(c1ccccc1)C1=C(O2)C(=O)c2c(O)ccc(O)c2C1=O` [Compound 64], the IC50 turned out to be 5.89 µM in test [1] and 1.3 µM in test [2].
As for `COc1ccc(O)c2c1C(=O)C1=C(C2=O)N(c2cccc(C#N)c2)Cc2ccccc2O1` [Compound 66], the figures for the IC50 in test [1], in test [5] and in test [3] were 0.05 µM, 2.34 µM and 1.21 µM, respectively.
With `CC(=O)Oc1ccc(OC(C)=O)c2c1C(=O)C1=C(C2=O)N(c2ccc(C#N)cc2)Cc2ccccc2O1` [Compound 67, 12-(4-cyanophenyl)-6,11-dioxo-6,11,12,13-tetrahydrobenzo[f]naphtho[2,3-b][1,4] oxazepine-7,10-diyl diacetate], the IC50 worked out at 0.23 µM in test [1] and 0.28 µM in test [3].
Regarding `CN(C)CCNc1ccc(N2Cc3ccccc3OC3=C2C(=O)c2ccccc2C3=O)cn1` [Compound 73], the IC50 in test [4] came out at 2.7 µM; in test [5], 2.27 µM; in test [3] it was 1.64 µM; in test [6], 1.7 µM.
`N#Cc1ccc(N2Cc3ccccc3OC3=C2C(=O)c2cccc(O)c2C3=O)cc1` [Compound 75]: the IC50 in test [4] was found to be 3.89 µM; in test [5], 2.36 µM; in test [3] it was 2.7 µM; in test [6], 5.49 µM.
For `O=C1C2=C(Oc3ccccc3CN2c2cccnc2)C(=O)c2c(O)cccc21` [Compound 76], in that order: 2.3 µM, 2 µM, 1.8 µM and 1.86 µM.
As to `CC(=O)Oc1ccc(OC(C)=O)c2c1C(=O)C1=C(C2=O)N(c2cccc(C#N)c2)Cc2ccccc2O1` [Compound 82, 12-(3-cyanophenyl)-6,11-dioxo-6,11,12,13-tetrahydrobenzo[f]naphtho[2,3-b][1,4] oxazepine-7,10-diyl diacetate], the IC50 is 0.18 µM in test [1] and 0.8 µM in test [3].
For `COc1ccc(O)c2c1C(=O)C1=C(Oc3ccccc3CN1c1ccccc1)C2=O` [Compound 84], the values for the IC50 in test [1], in test [5] and in test [3] were 3.71 µM, 3.98 µM and 1.18 µM, respectively.
Turning to `COc1ccc(OC)c2c1C(=O)C1=C(C2=O)N(c2cccnc2)Cc2ccccc2O1` [Compound 85, 7,10-dimethoxy-12-(pyridin-3-yl)-12,13-dihydrobenzo[f]naphtho[2,3-b][1,4]oxazepine-6,11-dione], the half-inhibitory concentration (IC50) in test [1] was determined as 0.33 µM; in test [2], 0.38 µM; in test [5] it was 2.57 µM; in test [3] it was 1.03 µM; in test [6] it was 1.78 µM.
Consider `COc1ccc(OC)c2c1C(=O)C1=C(C2=O)N(c2ccc(N3CCOCC3)nc2)Cc2ccccc2O1` [Compound 86], for which the IC50 in test [1] was 0.59 µM; in test [3] it was 1.28 µM; in test [6], 3.89 µM.
Take `CC(=O)Oc1ccc(OC(C)=O)c2c1C(=O)C1=C(C2=O)N(c2ccccc2)Cc2ccccc2O1` [Compound 87, 6,11-dioxo-12-phenyl-6,11,12,13-tetrahydrobenzo[f]naphtho[2,3-b][1,4]oxazepine-7,10-diyl diacetate]: the IC50 is 0.08 µM in test [1] and 0.15 µM in test [3].
For `CC(=O)Oc1ccc(OC(C)=O)c2c1C(=O)C1=C(C2=O)N(c2cccc(C(N)=O)c2)Cc2ccccc2O1` [Compound 92, 12-(3-carbamoylphenyl)-6,11-dioxo-6,11,12,13-tetrahydrobenzo[f]naphtho[2,3-b][1,4] oxazepine-7,10-diyl diacetate], the IC50 stood at 0.12 µM in test [1] and 0.15 µM in test [3].
With `CN(C)c1ccc(N2Cc3ccccc3OC3=C2C(=O)c2ccccc2C3=O)cn1` [Compound 98], the IC50 was 4.7 µM in test [4], 3.54 µM in test [5], 2.17 µM in test [3] and 2.94 µM in test [6].
As for `O=C1C2=C(C(=O)c3ccccc31)N(c1ccc(N3CCOCC3)nc1)Cc1ccccc1O2` [Compound 99], the IC50 came out at 4.3 µM in test [4], 2.28 µM in test [5], 2.09 µM in test [3] and 2.61 µM in test [6].
Turning to `COC(=O)CNC(=O)c1ccc(N2Cc3ccccc3OC3=C2C(=O)c2c(O)ccc(O)c2C3=O)cc1` [Compound 102, methyl (4-(7,10-dihydroxy-6,11-dioxo-6,11-dihydrobenzo[f]naphtho[2,3-b][1,4]oxazepin-12(13H)-yl)benzoyl)glycinate], the concentration for half-maximal inhibition (IC50) in test [4] turned out to be 1 µM; in test [2], 0.42 µM; in test [3], 0.17 µM.
On to `CN1CCN(c2ccc(N3Cc4ccccc4OC4=C3C(=O)c3cccc(O)c3C4=O)cn2)CC1` [Compound 106], for which the IC50 came out at 0.74 µM in test [3] and 0.71 µM in test [6].
